The target in the assay is T1, JAK3 (JH1 and JH2 domain) (Homo sapiens, UniProt P52333).
T1 sequence (P52333 521-1111 limits assumed): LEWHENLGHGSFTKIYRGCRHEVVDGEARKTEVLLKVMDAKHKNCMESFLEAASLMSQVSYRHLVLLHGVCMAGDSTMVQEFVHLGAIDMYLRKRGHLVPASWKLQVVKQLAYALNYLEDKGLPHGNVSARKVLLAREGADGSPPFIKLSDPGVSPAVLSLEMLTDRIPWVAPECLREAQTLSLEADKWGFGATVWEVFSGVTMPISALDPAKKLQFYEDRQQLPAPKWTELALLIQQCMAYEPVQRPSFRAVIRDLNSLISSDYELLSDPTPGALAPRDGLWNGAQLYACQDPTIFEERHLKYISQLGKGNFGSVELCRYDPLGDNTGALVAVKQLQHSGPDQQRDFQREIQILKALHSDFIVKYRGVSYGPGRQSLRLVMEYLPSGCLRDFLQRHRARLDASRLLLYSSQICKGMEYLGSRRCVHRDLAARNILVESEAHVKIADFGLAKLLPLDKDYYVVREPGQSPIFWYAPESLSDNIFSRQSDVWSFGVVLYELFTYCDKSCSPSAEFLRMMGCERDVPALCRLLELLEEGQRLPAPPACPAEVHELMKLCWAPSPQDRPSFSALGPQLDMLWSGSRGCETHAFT
Briefly: JAK3 Kinase Assay (ELISA of peptide substrate phosphorylation). Type of assay: biochemical. The conditions noted are these: purified JAK3 enzyme, 10 μM ATP, biotinylated peptide substrate, 1 hour at room temperature. The method, then: JAK3 enzyme activity was assayed relative to enzyme phosphorylation using the method described herein.
Sf21 cells derived from the ovarian tissue of the fall armyworm Spodotera frugiperda were obtained from Pharmingen (San Diego, Calif.) and maintained at a temperature of about 26-28° C. in 1 l Bellco spinner flasks at 60-90 rpm. Cell viability was maintained at 95-100%, as determined by a tryptan blue dye exclusion test.
Sf21 cells were infected with a baculovirus expression vector for JAK3 (JH1 and JH2 domain). After 48 hours of infection, cells were harvested and lysed in Tris-saline (pH 7.6) containing 2% NP-40 and a combination of protease inhibitors (Aprotinin, Pepstatin A, Pefabloc, E-64, Leupeptin, and Benzamidine) on ice for 45 minutes.
The JAK3 enzyme was purified from the lysate using glutathione sepharose beads and the enzyme activity was assessed in Costar flat bottom EIA/RIA 96 well plates. The plates were coated with Neutravidin (110 μL) (Pierce Neutravidin Biotin-binding Protein 31000; 1 mg/mL 1:100) diluted in PBS for 1 hour at room temperature. The plates were washed with PBS-0.1% Tween (3 times) to remove unbound Neutravidin, then 1% BSA (150 NIL) in PBS was added to each well to block non-specific binding. The plates was incubated for 1 hour at room temperature and stored at −80° C. until use.
JAK3 enzyme solution (48 μL) in 1.25×TK buffer (62.5 mM HEPES pH 7.5, 12.5 mM MgCl2) containing DTT (42 mM) (Sigma, St. Louis, Mo.) was added to each well of a polypropylene 96 well plate.
A test compound (5 μL) diluted in DMSO (48 μL) and biotinylated peptide enzyme substrate (5 μg diluted in TK buffer containing 10 μM ATP) were added to each well using the double dispense feature of a multichannel electronic biohit. Control wells received DMSO vehicle (5 μL). The contents of the wells were mixed for approximately 8 seconds using a multitube vortexer and the reaction mixture was incubated for 1 hour at room temperature.
After incubation, an aliquot of reaction mixture (90 μL) was transferred into a washed Neutravidin coated plate. The plate was incubated for 15 minutes at room temperature and washed 3 times with PBS-T. PY99 anti-phosphotyrosine antibody (100 μL/well) (Santa Cruz #sc-7020HRP diluted 1:6000 in 1× antibody buffer) was added into each well and the plate was incubated for 40 minutes at room temperature. The antibody buffer contained 10% BSA, 100 mM Tris (pH 7.5), 1M NaCl and 1% Tween 20. The plate washed 3 times with PBS-T, then TMB (100 pLXSigma, St. Louis, Mo.) was added to the each well. The plate was incubated for another 40 mins at room temperature in the dark. The reaction was stopped by the addition of 1M H2SO4 (50 μL/well) and the optical density was read at 450/650 nm.
Test compounds were assayed in triplicate at 16 concentrations at half-log dilutions starting at 200 μM. A maximum and minimum signal for the assay was determined on each plate. The percent inhibition of a test compound was calculated according to the formula [formula]
For a series of test concentrations, the IC50 was derived by graphing percent inhibition against the log of the concentrations tested for a given compound. For those compounds without an IC50, the percent inhibition results are shown at a test concentration of 1 μM.
A general note: An ELISA detects its analyte on a solid surface through an enzyme-linked reagent.
What is called IC50 is the concentration at which inhibition is half-maximal. Consider `CC(C)NC(=O)OC1CCn2c3ccccc3c3c4c(c5c6ccccc6n(c5c32)CC1)C(=O)NC4` (centres unmarked) [Cpd 180, 12,13-[3-(isopropyl-carbamoyloxy)-pentan-1,5-yl]-6,7,12,13-tetrahydro-5-oxo-5H-indolo[2,3-a]pyrrolo[3,4-c]carbazole], for which the IC50 amounted to 706 nM.
`COCCNC(=O)C1(O)Cn2c3ccccc3c3c4c(c5c6ccccc6n(c5c32)CC1O)C(=O)NC4=O` (centres unmarked) [Cpd 124, 12,13-{2-[(2-methoxy-ethyl)carbamoyl]-2,3-dihydroxy-butan-1,4-yl}-12,13-dihydro-5,7-dioxo-6H-indolo[2,3-a]pyrrolo[3,4-c]carbazole]: the IC50 was 52 nM.
The value for `O=C(NC1CCN(Cc2ccccc2)CC1)OC1CCn2c3ccccc3c3c4c(c5c6ccccc6n(c5c32)CC1)C(=O)NC4` (centres unmarked) [Cpd 187, 12,13-{3-[(1-benzyl-piperidin-4-yl)carbamoyloxy]-pentan-1,5-yl}-6,7,12,13-tetrahydro-5-oxo-5H-indolo[2,3-a]pyrrolo[3,4-c]carbazole] was 3000 nM; that for `COCCNC(=O)OC1CCn2c3ccccc3c3c4c(c5c6ccccc6n(c5c32)CC1)C(=O)NC4` (centres unmarked) [Cpd 179, 12,13-{3-[(2-methoxy-ethyl)carbamoyloxy]-pentan-1,5-yl}-6,7,12,13-tetrahydro-5-oxo-5H-indolo[2,3-a]pyrrolo[3,4-c]carbazole] was 1060 nM.
For `O=C(NC1CCNCC1)OC1Cn2c3ccccc3c3c4c(c5c6ccccc6n(c5c32)CC1O)C(=O)NC4=O` (centres unmarked) [Cpd 113, 12,13-[2-(piperidin-4-yl-carbamoyloxy)-3-hydroxy-butan-1,4-yl]-12,13-dihydro-5,7-dioxo-6H-indolo[2,3-a]pyrrolo[3,4-c]carbazole], the IC50 was 47 nM.
`CN(C)CCN(C)C(=O)OCC1(O)Cn2c3ccccc3c3c4c(c5c6ccccc6n(c5c32)C1)C(=O)NC4` (centres unmarked) [Cpd 148, 12,13-(2-hydroxy-2-{[N-methyl-N-(2-dimethylamino-ethyl)]carbamoyloxymethyl}-propan-1,3-yl)-6,7,12,13-tetrahydro-5-oxo-5H-indolo[2,3-a]pyrrolo[3,4-c]carbazole]: the IC50 was determined as 25 nM.
As for `O=C1NC(=O)c2c1c1c3ccccc3n3c1c1c2c2ccccc2n1CC(O)CCC3` (centres unmarked) [Cpd 8], the IC50 amounted to 8 nM.
`O=C1NCc2c1c1c3ccccc3n3c1c1c2c2ccccc2n1CC(COC(=O)N1CCN(Cc2ccc4c(c2)OCO4)CC1)C3` (centres unmarked) [Cpd 170, 12,13-(2-{[4-(benzo[1,3]dioxol-5-ylmethyl)piperazin-1-yl]carbonyloxymethyl}-propan-1,3-yl}-6,7,12,13-tetrahydro-5-oxo-5H-indolo[2,3-a]pyrrolo[3,4-c]carbazole]: the IC50 came to 202 nM.
Next, `O=C(NC1CCNC1)OC1CCn2c3ccccc3c3c4c(c5c6ccccc6n(c5c32)C1)C(=O)NC4=O` (centres unmarked) [Cpd 72, 12,13-[2-(pyrrolidin-3-yl-carbamoyloxy)-butan-1,4-yl]-12,13-dihydro-5,7-dioxo-6H-indolo[2,3-a]pyrrolo[3,4-c]carbazole]: 12 nM; `O=C(NCCCN1CCCC1=O)OCC1(O)Cn2c3ccccc3c3c4c(c5c6ccccc6n(c5c32)C1)C(=O)NC4` (centres unmarked) [Cpd 140, 12,13-(2-hydroxy-2-{[3-(2-oxo-pyrrolidin-1-yl)-prop-1-yl]carbamoyloxymethyl}-propan-1,3-yl)-6,7,12,13-tetrahydro-5-oxo-5H-indolo[2,3-a]pyrrolo[3,4-c]carbazole]: 72 nM.
Regarding `CN(C)CCN(C)C(=O)OC1CCn2c3ccccc3c3c4c(c5c6ccccc6n(c5c32)C1)C(=O)NC4=O` (centres unmarked) [Cpd 67, 12,13-(2-{[N-methyl-N-(2-dimethylamino-ethyl)]carbamoyloxy}-butan-1,4-yl)-12,13-dihydro-5,7-dioxo-6H-indolo[2,3-a]pyrrolo[3,4-c]carbazole], the IC50 came out at 247 nM.
`O=C1NCc2c1c1c3ccccc3n3c1c1c2c2ccccc2n1CCC(OC(=O)N1CCN(c2ccncc2)CC1)CC3` (centres unmarked) [Cpd 184, 12,13-{3-[(4-pyridin-4-yl-piperazin-1-yl)carbonyloxy]-pentan-1,5-yl}-6,7,12,13-tetrahydro-5-oxo-5H-indolo[2,3-a]pyrrolo[3,4-c]carbazole]: the IC50 stood at 4360 nM.
`COC1Cn2c3ccccc3c3c4c(c5c6ccccc6n(c5c32)CC1OC)C(=O)NC4=O` (centres unmarked) [Cpd 10, 12,13-(2,3-dimethoxy-butan-1,4-yl)-12,13-dihydro-5,7-dioxo-6H-indolo[2,3-a]pyrrolo[3,4-c]carbazole]: the IC50 worked out at 16 nM.
On to `O=C1NCc2c1c1c3ccccc3n3c1c1c2c2ccccc2n1CCOCC3` [Cpd 29, 12,13-(3-oxa-pentan-1,5-yl)-6,7,12,13-tetrahydro-5-oxo-5H-indolo[2,3-a]pyrrolo[3,4-c]carbazole], for which the IC50 turned out to be 14 nM.
On to `COc1ccc(CCNC(=O)OCC2(O)Cn3c4ccccc4c4c5c(c6c7ccccc7n(c6c43)C2)C(=O)NC5)cc1OC` (centres unmarked) [Cpd 153, 12,13-(2-hydroxy-2-{[2-(3,4-dimethoxy-phenyl)ethyl]carbamoyloxymethyl}-propan-1,3-yl)-6,7,12,13-tetrahydro-5-oxo-5H-indolo[2,3-a]pyrrolo[3,4-c]carbazole], for which the IC50 is 17 nM.
On to `O=C(NCCCN1CCOCC1)OC1Cn2c3ccccc3c3c4c(c5c6ccccc6n(c5c32)CC1O)C(=O)NC4=O` (centres unmarked) [Cpd 88, 12,13-{2-[(3-morpholin-4-yl-prop-1-yl)carbamoyloxy]-3-hydroxy-butan-1,4-yl}-12,13-dihydro-5,7-dioxo-6H-indolo[2,3-a]pyrrolo[3,4-c]carbazole], for which the IC50 amounted to 113 nM.
The value for `O=C1NCc2c1c1c3ccccc3n3c1c1c2c2ccccc2n1CC(O)(COC(=O)N1CCc2ccccc2C1)C3` (centres unmarked) [Cpd 147, 12,13-{2-hydroxy-2-[(1,2,3,4-tetrahydro-isoquinolin-2-yl)carbonyloxymethyl]-propan-1,3-yl}-6,7,12,13-tetrahydro-5-oxo-5H-indolo[2,3-a]pyrrolo[3,4-c]carbazole] was 28 nM; that for `Cc1ccc(CNC(=O)OC2CCn3c4ccccc4c4c5c(c6c7ccccc7n(c6c43)C2)C(=O)NC5=O)o1` (centres unmarked) [Cpd 48, 12,13-(2-{[(5-methyl-furan-2-yl)methyl]carbamoyloxy}-butan-1,4-yl)-12,13-dihydro-5,7-dioxo-6H-indolo[2,3-a]pyrrolo[3,4-c]carbazole] was 11 nM.
Turning to `O=C1NCc2c1c1c3ccccc3n3c1c1c2c2ccccc2n1CC(O)(COC(=O)N1CCN(c2ccncc2)CC1)C3` (centres unmarked) [Cpd 144, 12,13-{2-hydroxy-2-[(4-pyridin-4-yl-piperazin-1-yl)carbonyloxymethyl]-propan-1,3-yl}-6,7,12,13-tetrahydro-5-oxo-5H-indolo[2,3-a]pyrrolo[3,4-c]carbazole], the IC50 was found to be 886 nM.
Next, `O=C1NC(=O)c2c1c1c3ccccc3n3c1c1c2c2ccccc2n1CC(OC(=O)N1CCN(Cc2ccc4c(c2)OCO4)CC1)CC3` (centres unmarked) [Cpd 54, 12,13-(2-{[4-(benzo[1,3]dioxol-5-yl-methyl)piperazin-1-yl]carbonyloxy}-butan-1,4-yl)-12,13-dihydro-5,7-dioxo-6H-indolo[2,3-a]pyrrolo[3,4-c]carbazole]: 1000 nM.

Source of the values: patent US20070249590A1, “Substituted indolo[2,3-a]pyrrolo[3,4-c]carbazole compounds useful in treating kinase disorders” (priority 2005, published 2007).
